Test results published in publication PMC6571673, “Cytostatic and Cytotoxic Natural Products against Cancer Cell Models” (Molecules, 2019).

System: MDA-MB-231
Experiment: Co-localization of probe with organelle trackers, live cell imaging
Type: cell-based, human
Conditions: live cells, 2 µM
Description: It is important to determine the intracellular accumulation of compound 9 as this may aid in identifying its intracellular interactions. To facilitate these experiments, a series of orthogonal fluorescent organelle markers were used for co-localization studies. The organelle marker set included indicators for the lysosome (Lysotracker Red), the mitochondria (MitoTracker Deep Red), and the endoplasmic reticulum (ER tracker Blue/White). Where applicable, nuclei were stained with Hoechst (Blue). All these markers were compatible with BODIPY-FL (green) to allow for flexible combinations. […] First, to evaluate the accumulation of compound 9a after 30 min treatment at 1 µM, washout experiments were conducted as shown in Figure 7A in the presence of Hoechst nuclear stain. Distinct green specks were observed near the nucleus of the cell.
Co-localization studies were conducted in 8-well chambered coverslips (ibidi GmbH µ-slide # 80826) for MDA-MB-231. Coverslips were first coated with 0.1% Gelatin for 30 min for better cell adherence. Cells were then plated in phenol red free medium at a density of 4 × 10^4 cells per well and incubated at 37 °C overnight. […]

Compound: COC1=CC23CCCN2CCc2cc4c(cc2C3C1OC(=O)CCC1=[N+]2C(=Cc3c(C)cc(C)n3[B-]2(F)F)C=C1)OCO4 (stereo not shown) [9a]
- co-localization with endoplasmic reticulum (ER-Tracker Blue/White): Co-localization of probe 9a with ER-Tracker Blue/White
